What was measured:
PC3 cells = assay: NAMPT Cell Proliferation Assay (Cell Titer Glo); assay type: cell-based; details: Homo sapiens, PC-3, 120 h, incubated 5 days, cell viability
In short: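 Viability measured by Cell Titer Glo luminescence after 5-day exposure of attached PC3 cells to compound, dosed as 10-fold serial dilutions ([…]) in RPMI/10% FBS at 37 °C and 5% CO2. Percent inhibition fitted to sigmoidal dose-response curves for IC50.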

NAMPT [1] = target: T1, NAMPT (Homo sapiens, UniProt P43490); assay: TR-FRET Binding Assay of NAMPT with PRPP; details: 2 nM NAMPT, 2 nM probe, 200 µM PRPP and 2.5 mM ATP, equilibrated 16 hours
T1 sequence (P43490 whole entry): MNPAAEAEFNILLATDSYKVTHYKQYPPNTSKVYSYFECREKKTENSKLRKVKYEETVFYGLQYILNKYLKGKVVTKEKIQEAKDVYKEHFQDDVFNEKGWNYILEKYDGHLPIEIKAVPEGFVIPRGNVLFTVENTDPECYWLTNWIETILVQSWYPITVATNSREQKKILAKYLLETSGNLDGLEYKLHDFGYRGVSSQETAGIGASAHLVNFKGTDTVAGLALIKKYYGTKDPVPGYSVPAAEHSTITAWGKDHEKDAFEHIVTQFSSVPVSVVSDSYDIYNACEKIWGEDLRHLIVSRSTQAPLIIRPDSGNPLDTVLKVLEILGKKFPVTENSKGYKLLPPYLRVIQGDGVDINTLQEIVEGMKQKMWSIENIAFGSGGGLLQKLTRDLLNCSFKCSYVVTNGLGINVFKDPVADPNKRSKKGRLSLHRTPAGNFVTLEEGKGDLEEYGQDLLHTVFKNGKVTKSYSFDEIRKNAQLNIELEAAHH
In short: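 Substrates present: PRPP at 200 µM and ATP at 2.5 mM, final, alongside 2 nM enzyme, 2 nM tracer and 1 nM terbium anti-His donor in 2% DMSO. A 16-hour equilibration preceded the time-resolved FRET read, allowing compounds to be enzymatically modified.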

NAMPT [2] = target: T1, NAMPT; assay: Time-Resolved Fluorescence Resonance Energy Transfer (TR-FRET) Binding Assay of NAMPT; details: 6.8 nM NAMPT, 200 nM probe, equilibrated 3 hours, no substrates
In short: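 IC50s come from four-parameter logistic fits of control-normalized Em520/Em495 TR-FRET ratios (Ex 337 nm) against compound concentration. Before reading, enzyme, probe, antibody and compound equilibrated for 3 h at room temperature.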

For `CCC(C)(C)C(=O)N1CCC(c2ccc(NC(=O)N3CC(c4cccnc4)C3)cc2)C1` (stereo not drawn) [Example 290, N-{4-[1-(2,2-dimethylbutanoyl)pyrrolidin-3-yl]phenyl}-3-(pyridin-3-yl)azetidine-1-carboxamide], the IC50 (PC3 cells) was 10.3 nM, the IC50 (NAMPT [1]) was 0.224 nM and the IC50 (NAMPT [2]) was 11.1 nM.
Work on `CC(C)(C)OC(=O)N1CC(c2ccc(NC(=O)N3CC(c4cccnc4)C3)cc2)C1` [Example 62, tert-butyl 3-[4-({[3-(pyridin-3-yl)azetidin-1-yl]carbonyl}amino)phenyl]azetidine-1-carboxylate] yielded an IC50 (PC3 cells) of 69.7 nM, an IC50 (NAMPT [1]) of 0.467 nM and an IC50 (NAMPT [2]) of 91.5 nM.
`O=C(Nc1ccc(O[C@@H]2CCN(C(=O)c3cccs3)C2)cc1)N1CC(c2cccnc2)C1` [Example 324, 3-(pyridin-3-yl)-N-(4-{[(3R)-1-(thiophen-2-ylcarbonyl)pyrrolidin-3-yl]oxy}phenyl)azetidine-1-carboxamide] showed an IC50 (PC3 cells) of 6.24 nM, an IC50 (NAMPT [1]) of 0.36 nM and an IC50 (NAMPT [2]) of 20.7 nM.
In the case of `CCCC(=O)N1CCC(c2ccc(NC(=O)N3CC(c4cccnc4)C3)cc2)CC1` [Example 172, N-[4-(1-butanoylpiperidin-4-yl)phenyl]-3-(pyridin-3-yl)azetidine-1-carboxamide], the IC50 (PC3 cells) is reported as 34.5 nM, the IC50 (NAMPT [1]) is reported as 0.206 nM and the IC50 (NAMPT [2]) is reported as 5.65 nM.
`N#Cc1ccc(NC(=O)N2CC(c3cccnc3)C2)cc1` [Example 14, N-(4-cyanophenyl)-3-(pyridin-3-yl)azetidine-1-carboxamide] was tested, and the IC50 (PC3 cells) was 6680 nM, the IC50 (NAMPT [1]) was 0.178 nM and the IC50 (NAMPT [2]) was 879 nM.
Molecule `O=C(CC1CCOCC1)N1CC[C@H](Oc2ccc(NC(=O)N3CC(c4cccnc4)C3)cc2)C1` [Example 88, 3-(pyridin-3-yl)-N-(4-{[(3S)-1-(tetrahydro-2H-pyran-4-ylacetyl)pyrrolidin-3-yl]oxy}phenyl)azetidine-1-carboxamide] has an IC50 (PC3 cells) of 109 nM, an IC50 (NAMPT [1]) of 0.58 nM and an IC50 (NAMPT [2]) of 269 nM.
For `CC(C)(C)C(=O)N1CCC(c2ccc(NC(=O)N3CC(c4cccnc4)C3)cc2)CC1` [Example 171, N-{4-[1-(2,2-dimethylpropanoyl)piperidin-4-yl]phenyl}-3-(pyridin-3-yl)azetidine-1-carboxamide], the IC50 (PC3 cells) was 22 nM, the IC50 (NAMPT [1]) was 0.231 nM and the IC50 (NAMPT [2]) was 8.74 nM.
Work on `CC(C)(C)CCN1CC(c2ccc(NC(=O)N3CC(c4cccnc4)C3)cc2)C1` [Example 247, N-{4-[1-(3,3-dimethylbutyl)azetidin-3-yl]phenyl}-3-(pyridin-3-yl)azetidine-1-carboxamide] yielded an IC50 (PC3 cells) of 471 nM, an IC50 (NAMPT [1]) of 0.304 nM and an IC50 (NAMPT [2]) of 871 nM.
`O=C(Nc1ccc(OC2CN(C(=O)c3cncs3)C2)cc1)N1CC(c2cccnc2)C1` [Example 144, 3-(pyridin-3-yl)-N-(4-{[1-(1,3-thiazol-5-ylcarbonyl)azetidin-3-yl]oxy}phenyl)azetidine-1-carboxamide] was tested, and the IC50 (PC3 cells) was 9.04 nM, the IC50 (NAMPT [1]) was 0.313 nM and the IC50 (NAMPT [2]) was 25.6 nM.
`CCOCC(=O)N1CCC(c2ccc(NC(=O)N3CC(c4cccnc4)C3)cc2)CC1` [Example 173, N-{4-[1-(ethoxyacetyl)piperidin-4-yl]phenyl}-3-(pyridin-3-yl)azetidine-1-carboxamide] gave an IC50 (PC3 cells) of 56.4 nM, an IC50 (NAMPT [1]) of 0.393 nM and an IC50 (NAMPT [2]) of 90.4 nM.
`O=C(CCN1CCOCC1)N1CC[C@@H](Oc2ccc(NC(=O)N3CC(c4cccnc4)C3)cc2)C1` [Example 321, N-[4-({(3R)-1-[3-(morpholin-4-yl)propanoyl]pyrrolidin-3-yl}oxy)phenyl]-3-(pyridin-3-yl)azetidine-1-carboxamide] showed an IC50 (PC3 cells) of 119 nM, an IC50 (NAMPT [1]) of 0.246 nM and an IC50 (NAMPT [2]) of 176 nM.
`Cc1ccsc1C(=O)N1CC[C@@H](Oc2ccc(NC(=O)N3CC(c4cccnc4)C3)cc2)C1` [Example 310, N-[4-({(3R)-1-[(3-methylthiophen-2-yl)carbonyl]pyrrolidin-3-yl]oxy}phenyl)-3-(pyridin-3-yl)azetidine-1-carboxamide] gave an IC50 (PC3 cells) of 2.76 nM, an IC50 (NAMPT [1]) of 0.297 nM and an IC50 (NAMPT [2]) of 4.54 nM.
Molecule `CCC(C)CC(=O)N1CCC(Oc2ccc(NC(=O)N3CC(c4cccnc4)C3)cc2)CC1` (stereo not drawn) [Example 41, N-(4-{[1-(3-methylpentanoyl)piperidin-4-yl]oxy}phenyl)-3-(pyridin-3-yl)azetidine-1-carboxamide] has an IC50 (PC3 cells) of 69.8 nM, an IC50 (NAMPT [1]) of 0.448 nM and an IC50 (NAMPT [2]) of 76.8 nM.
`CCC(=O)N1CCC(c2ccc(NC(=O)N3CC(c4cccnc4)C3)cc2)CC1` [Example 192, N-[4-(1-propanoylpiperidin-4-yl)phenyl]-3-(pyridin-3-yl)azetidine-1-carboxamide] gave an IC50 (PC3 cells) of 63.2 nM, an IC50 (NAMPT [1]) of 0.255 nM and an IC50 (NAMPT [2]) of 23 nM.
With `CCCC(=O)N1CC[C@H](Oc2ccc(NC(=O)N3CC(c4cccnc4)C3)cc2)C1` [Example 99, N-(4-{[(3S)-1-butanoylpyrrolidin-3-yl]oxy}phenyl)-3-(pyridin-3-yl)azetidine-1-carboxamide] the IC50 (PC3 cells) was 49.3 nM, the IC50 (NAMPT [1]) was 0.414 nM and the IC50 (NAMPT [2]) was 223 nM.
`O=C(CC(F)(F)F)N1CC(Oc2ccc(NC(=O)N3CC(c4cccnc4)C3)cc2)C1` [Example 134, 3-(pyridin-3-yl)-N-(4-{[1-(3,3,3-trifluoropropanoyl)azetidin-3-yl]oxy}phenyl)azetidine-1-carboxamide] gave an IC50 (PC3 cells) of 28.3 nM, an IC50 (NAMPT [1]) of 0.317 nM and an IC50 (NAMPT [2]) of 54.2 nM.
`O=C(CC1CCOCC1)N1CCC(Oc2ccc(NC(=O)N3CC(c4cccnc4)C3)cc2)CC1` [Example 2, 3-(pyridin-3-yl)-N-(4-{[1-(tetrahydro-2H-pyran-4-ylacetyl)piperidin-4-yl]oxy}phenyl)azetidine-1-carboxamide] gave an IC50 (PC3 cells) of 34.9 nM, an IC50 (NAMPT [1]) of 0.37 nM and an IC50 (NAMPT [2]) of 125 nM.
`CCC(C)CN1CCC(c2ccc(NC(=O)N3CC(c4cccnc4)C3)cc2)CC1` (stereo not drawn) [Example 239, N-{4-[1-(2-methylbutyl)piperidin-4-yl]phenyl}-3-(pyridin-3-yl)azetidine-1-carboxamide] was tested, and the IC50 (PC3 cells) was 1510 nM, the IC50 (NAMPT [1]) was 0.2 nM and the IC50 (NAMPT [2]) was 1680 nM.
For `O=C(Nc1ccc(C2CCN(C(=O)c3cccs3)C2)cc1)N1CC(c2cccnc2)C1` (stereo not drawn) [Example 284, 3-(pyridin-3-yl)-N-{4-[1-(thiophen-2-ylcarbonyl)pyrrolidin-3-yl]phenyl}azetidine-1-carboxamide], the IC50 (PC3 cells) was 22.3 nM, the IC50 (NAMPT [1]) was 0.204 nM and the IC50 (NAMPT [2]) was 18.3 nM.
With `CC(C)CC(=O)N1CCC(c2ccc(NC(=O)N3CC(c4cccnc4)C3)cc2)CC1` [Example 174, N-{4-[1-(3-methylbutanoyl)piperidin-4-yl]phenyl}-3-(pyridin-3-yl)azetidine-1-carboxamide] the IC50 (PC3 cells) was 24.4 nM, the IC50 (NAMPT [1]) was 0.325 nM and the IC50 (NAMPT [2]) was 20.8 nM.
For `O=C(Nc1ccc(C2CCN(C(=O)c3cccs3)CC2)cc1)N1CC(c2cccnc2)C1` [Example 188, 3-(pyridin-3-yl)-N-{4-[1-(thiophen-2-ylcarbonyl)piperidin-4-yl]phenyl}azetidine-1-carboxamide], the IC50 (PC3 cells) was 2.25 nM, the IC50 (NAMPT [1]) was 0.188 nM and the IC50 (NAMPT [2]) was 2.1 nM.
With `O=C(Nc1ccc(OC2CCN(C(=O)[C@@H]3CCCO3)CC2)cc1)N1CC(c2cccnc2)C1` [Example 31, 3-(pyridin-3-yl)-N-[4-({1-[(2S)-tetrahydrofuran-2-ylcarbonyl]piperidin-4-yl}oxy)phenyl]azetidine-1-carboxamide] the IC50 (PC3 cells) was 38.9 nM, the IC50 (NAMPT [1]) was 0.33 nM and the IC50 (NAMPT [2]) was 40.6 nM.
For `O=C(CC1CCCC1)N1CC(Oc2ccc(NC(=O)N3CC(c4cccnc4)C3)cc2)C1` [Example 153, N-(4-{[1-(cyclopentylacetyl)azetidin-3-yl]oxy}phenyl)-3-(pyridin-3-yl)azetidine-1-carboxamide], the IC50 (PC3 cells) was 8.03 nM, the IC50 (NAMPT [1]) was 0.436 nM and the IC50 (NAMPT [2]) was 12.4 nM.
With `O=C(CC1CCCC1)N1CCC(c2ccc(NC(=O)N3CC(c4cccnc4)C3)cc2)C1` (stereo not drawn) [Example 261, N-{4-[1-(cyclopentylacetyl)pyrrolidin-3-yl]phenyl}-3-(pyridin-3-yl)azetidine-1-carboxamide] the IC50 (PC3 cells) was 71.3 nM, the IC50 (NAMPT [1]) was 0.194 nM and the IC50 (NAMPT [2]) was 33.5 nM.
`O=C(Nc1ccc(C2CN(CC3CCCO3)C2)cc1)N1CC(c2cccnc2)C1` (stereo not drawn) [Example 250, 3-(pyridin-3-yl)-N-{4-[1-(tetrahydrofuran-2-ylmethyl)azetidin-3-yl]phenyl}azetidine-1-carboxamide] showed an IC50 (PC3 cells) of 664 nM, an IC50 (NAMPT [1]) of 0.679 nM and an IC50 (NAMPT [2]) of 865 nM.
With `CCCC(=O)N1CC(Oc2ccc(NC(=O)N3CC(c4cccnc4)C3)cc2)C1` [Example 129, N-{4-[(1-butanoylazetidin-3-yl)oxy]phenyl}-3-(pyridin-3-yl)azetidine-1-carboxamide] the IC50 (PC3 cells) was 11.3 nM, the IC50 (NAMPT [1]) was 0.401 nM and the IC50 (NAMPT [2]) was 40 nM.
With `CC(C)(O)C(=O)N1CC(Oc2ccc(NC(=O)N3CC(c4cccnc4)C3)cc2)C1` [Example 30, N-(4-{[1-(2-hydroxy-2-methylpropanoyl)azetidin-3-yl]oxy}phenyl)-3-(pyridin-3-yl)azetidine-1-carboxamide] the IC50 (PC3 cells) was 125 nM, the IC50 (NAMPT [1]) was 0.255 nM and the IC50 (NAMPT [2]) was 69.4 nM.
`CC(C)CC(=O)N1CC(c2ccc(NC(=O)N3CC(c4cccnc4)C3)cc2)C1` [Example 208, N-{4-[1-(3-methylbutanoyl)azetidin-3-yl]phenyl}-3-(pyridin-3-yl)azetidine-1-carboxamide] gave an IC50 (PC3 cells) of 73.7 nM, an IC50 (NAMPT [1]) of 0.473 nM and an IC50 (NAMPT [2]) of 48.6 nM.
In the case of `O=C(Nc1ccc(O[C@@H]2CCN(C(=O)c3ccoc3)C2)cc1)N1CC(c2cccnc2)C1` [Example 303, N-(4-{[(3R)-1-(furan-3-ylcarbonyl)pyrrolidin-3-yl]oxy}phenyl)-3-(pyridin-3-yl)azetidine-1-carboxamide], the IC50 (PC3 cells) is reported as 13.5 nM, the IC50 (NAMPT [1]) is reported as 0.595 nM and the IC50 (NAMPT [2]) is reported as 40.5 nM.

— patent publication US9296723B2, “NAMPT inhibitors” (AbbVie Inc., priority 2012, dated 2016)
